Results from patent EP0387661A2, “New 3'-(4-morpholinyl)- and 3'-(2-methoxy-4-morpholinyl)-anthracycline derivatives” (priority 1989, dated 1990).
≈ marks a conversion by molar mass, not a printed value.

Key:
[1] = tested on: LoVo/DX cells; test: in vitro cytotoxicity (colony growth inhibition) against LoVo/DX cells; format: cell-based, human; conditions: for R.I. = Resistance Index = (IC50 LoVo/DX)/(IC50 LoVo): ratio of IC50 LoVo/DX to IC50 LoVo; for Cytotoxicity after 4h of treatment (IC50) LoVo/DX: concentration inhibiting by 50% colony growth, tested as hydrochlorides
Protocol: (§1) All compounds were tested as their hydrochlorides.

[2] = tested on: P388; test: in vivo; conditions: for %T/C (Median survival time of treated mice/median survival time of controls x 100): P388 (iv, iv+1), at optimal dose
Protocol: (§2) The biological activity of the compounds according to the invention was tested in vitro against LoVo (human colon adenocarcinoma) and LoVo/DX cells in comparison with doxorubicin. The compounds of the invention were also tested in vivo against P388 and P388/DX murine leukemia in comparison with doxorubicin. All compounds were tested as their hydrochlorides.

[3] = in vivo; conditions: mouse, in vivo, iv
Protocol: as §2

[4] = tested on: P388/DX Johnson; test: in vivo; conditions: for %T/C (Median survival time of treated mice/median survival time of controls x 100): P388/DX Johnson (iv, iv+1), at optimal dose
Protocol: as §2

[5] = in vivo; conditions: mouse, in vivo, iv; remark: listed apart in the source
Protocol: as §2

[6] = tested on: LoVo (human colon adenocarcinoma); test: in vitro cytotoxicity (colony growth inhibition) against LoVo cells; format: cell-based; conditions: concentration inhibiting by 50% colony growth, tested as hydrochlorides
Protocol: as §1

Structure (SMILES)	R.I. = Resistance Index = (IC50 LoVo/DX)/(IC50 LoVo) [1]	%T/C (Median survival time of treated mice/median survival time of controls x 100) [2] [%]	MTD [3] [mg/kg]	%T/C (Median survival time of treated mice/median survival time of controls x 100) [4] [%]	MTD [5] [mg/kg]	IC50 ([6]; Homo sapiens, LoVo, 4h of treatment, read-out: Cytotoxicity after 4h of treatment (IC50) LoVo) [µg/mL]	Cytotoxicity after 4h of treatment (IC50) LoVo/DX [1] [µg/mL]	Cytotoxicity after 4h of treatment (IC50) LoVo [6] [µg/mL]	O.D. (Optimal dose: maximum tolerated dose (LD10)) ([2]; P388 (iv, iv+1): tumor implanted intravenously, treatment begins one day after implantation) [mg/kg]	O.D. (Optimal dose: maximum tolerated dose (LD10)) ([4]; P388/DX Johnson (iv, iv+1): tumor implanted intravenously, treatment begins one day after implantation) [mg/kg]
COc1cccc2c1C(=O)c1c(O)c3c(c(O)c1C2=O)C[C@@](O)(C(=O)CO)C[C@@H]3O[C@H]1C[C@H](N)[C@H](O)[C@H](C)O1 [Doxorubicin, reference compound]	36	250	13	100	13	0.06 (≈ 0.11 µM)	–	–	–	–
C[C@@H]1O[C@@H](O[C@H]2C[C@](O)(C(=O)CO)Cc3c2cc2c(c3O)C(=O)c3cccc(O)c3C2=O)C[C@H](N2CCOCC2)[C@@H]1O [Ia, 4-demethyl-6-deoxy-3′-deamino-3′-(4-morpholinyl) doxorubicin]	4.7	222	–	183	–	–	0.1654	0.0355	–	–
CC(=O)[C@]1(O)Cc2c(O)c3c(c(O)c2[C@@H](O[C@H]2C[C@H](N4CCOCC4)[C@H](O)[C@H](C)O2)C1)C(=O)c1c(N)cccc1C3=O [Ib, 4-demethoxy-4-amino-3′-deamino-3′-(4-morpholinyl)-daunorubicin]	2.1	156	–	167	–	–	0.0285	0.0137	–	–
CC(=O)[C@]1(O)Cc2c(O)c3c(c(O)c2[C@@H](O[C@H]2C[C@H](N4CCOCC4)[C@@H](O)[C@H](C)O2)C1)C(=O)c1c(N)cccc1C3=O [Ic, 4-demethoxy-4-amino-3′-deamino-3′-(4-morpholinyl)-4′-epi-daunorubicin]	1.3	–	–	195	20	–	0.0485	0.036	–	–
CC(=O)[C@]1(O)Cc2c(O)c3c(c(O)c2[C@@H](O[C@H]2C[C@H](N4CCOCC4)[C@@H](O)[C@H](C)O2)C1)C(=O)c1c(F)cccc1C3=O [Ie, 4-demethoxy-4-fluoro-3′-deamino-3′-(4-morpholinyl)-4′-epi-daunorubicin]	3.6	411	6.3	244	6.3	–	0.168	0.047	–	–
COC1CN(C2CC(OC3CC(O)(C(C)=O)Cc4c(O)c5c(c(O)c43)C(=O)c3ccccc3C5=O)OC(C)C2O)CCO1 (centres unmarked) [Il, 4-demethoxy-3′-deamino-3′-(2-methoxy-4-morpholinyl)-daunorubicin]	11.5	133	–	161	–	–	0.0023	0.0002	0.14	0.36
